Source: patent US20250250230A1, “HETEROCYCLIC COMPOUND” (TAKEDA PHARMACEUTICAL COMPANY LIMITED, priority 2022, published 2025)

Legend:
[1] = system: cynomolgus monkeys; test: Evaluation of wake-promoting effects in cynomolgus monkeys (EEG/EMG); type: in vivo, cynomolgus monkey; settings: 10 mg/kg p.o. at ZT12, time spent in wakefulness for 4 h after administration, male cynomolgus monkeys, n=2
Protocol: The wake-promoting effects were evaluated by measuring the electroencephalogram (EEG) and electromyogram (EMG) in cynomolgus monkeys. Under isoflurane anesthesia (0.5-5%, Pfizer Japan Inc., Tokyo, Japan), male cynomolgus monkeys (2-3 years old, Hamri Co., Ltd., Ibaraki, Japan) were surgically implanted with radio-telemetry transmitters (L03-F3, Data Sciences International Inc., MN, USA). EEG electrodes were screwed into the skull at the parietal area. EMG electrodes were implanted on the cervical muscles. After the surgery, each monkey was given penicillin (100,000 units/head, i.m., Meiji Seika Pharma Co., Ltd., Tokyo, Japan), buprenorphine (0.02 mg/kg, i.m., Otsuka Pharmaceutical Co., Ltd., Tokyo, Japan) and prednisolone (1 mg/kg, s.c., Kyoritsu Seiyaku Co., Ltd., Tokyo, Japan) daily for one week. After at least a 1-month recovery period in home cages, the monkeys were habituated to the recording chamber placed in a soundproof room. EEG and EMG signals were recorded using the telemetry system (Ponemah software, Data Sciences International Inc., MN, USA) and the signals were analyzed using SleepSign software (Kissei Comtec Co., Ltd., Nagano, Japan). After confirming long sleep in dark phase in the experimental room, we used animals to examine the wake-promoting effect of compounds. Test compounds (10 mg/kg) suspended in 0.5% methylcellulose aqueous solution, or vehicle (i.e., 0.5% methylcellulose aqueous solution) was administered orally (p.o.) to monkeys at zeitgeber time 12 (ZT12) in a volume of 5 mL/kg body weight in pre-post design (n=2). EEG and EMG recordings were performed for 4 h after the compound administration. The time spent in wakefulness for 4 h after administration (% of vehicle treatment) was calculated by using SleepSign.

[2] = biological target: T1, human orexin type 2 receptor (Homo sapiens, UniProt O43614); test: Measurement of orexin type 2 receptor agonist activity (calcium fluorescence, Fluo-4 AM, FDSS); type: cell-based; settings: test compound 3 μM; CHO cells expressing human OX2 receptor; DMSO = 0%, orexin A (human) = 100%
T1 construct: expressed in transfected cells
T1 sequence (O43614 1-444): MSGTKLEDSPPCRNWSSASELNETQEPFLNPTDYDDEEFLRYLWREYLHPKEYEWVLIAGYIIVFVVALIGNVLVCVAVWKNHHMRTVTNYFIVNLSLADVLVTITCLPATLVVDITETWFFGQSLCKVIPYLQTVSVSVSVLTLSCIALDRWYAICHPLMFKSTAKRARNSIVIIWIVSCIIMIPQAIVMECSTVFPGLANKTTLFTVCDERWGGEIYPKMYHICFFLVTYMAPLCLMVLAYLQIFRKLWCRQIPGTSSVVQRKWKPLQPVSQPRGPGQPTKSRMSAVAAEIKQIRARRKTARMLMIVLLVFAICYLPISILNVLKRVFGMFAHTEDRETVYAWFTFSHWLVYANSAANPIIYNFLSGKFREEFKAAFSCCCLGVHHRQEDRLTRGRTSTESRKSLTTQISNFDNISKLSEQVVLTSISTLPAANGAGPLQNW
In short: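 CHO-K1 cells stably expressing human OX2R were loaded with Fluo-4 AM (30 min 37 °C, 30 min RT) in HEPES-buffered HBSS with 0.1% BSA and probenecid. Calcium fluorescence was followed on FDSS for 2 min after compound addition; activity normalised to DMSO (0%) and 10 nM orexin A (100%).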

Compound	Wakefulness time (% of vehicle treatment) (Mean) [1]	OX2R agonist activity (3 μM, %) [2]
C[C@H](NS(C)(=O)=O)[C@@H]1CCN1C(=O)[C@@H]1C[C@@]1(F)c1ccccc1-c1c(F)cccc1F [Example 353, N-[(1S)-1-{(2S)-1-[(1S,2S)-2-(2′,6′-difluoro [1,1′-biphenyl]-2-yl)-2-fluorocyclopropane-1-carbonyl]azetidin-2-yl}ethyl]methanesulfonamide]	397.50 % of vehicle treatment	102%
C[C@@H]1CN(C(=O)[C@@H]2C[C@@]2(F)c2ccccc2-c2c(F)cccc2F)[C@@H]1CNS(C)(=O)=O [Example 358, N-({(2S,3R)-1-[(1S,2S)-2-(2′,6′-difluoro[1,1′-biphenyl]-2-yl)-2-fluorocyclopropane-1-carbonyl]-3-methylazetidin-2-yl}methyl)methanesulfonamide]	407.11 % of vehicle treatment	96%
CCS(=O)(=O)NC[C@@H]1[C@H](F)CN1C(=O)[C@@H]1C[C@@]1(F)c1ccccc1-c1c(F)cccc1F [Example 393, N-({(2R,3R)-1-[(1S,2S)-2-(2′,6′-difluoro [1,1′-biphenyl]-2-yl)-2-fluorocyclopropane-1-carbonyl]-3-fluoroazetidin-2-yl}methyl)ethanesulfonamide]	731.96 % of vehicle treatment	104%
Cc1ccc([C@]2(F)C[C@H]2C(=O)N2C[C@@H](F)[C@H]2CNS(C)(=O)=O)c(-c2c(F)cccc2F)c1 [Example 411, N-({(2R,3R)-1-[(1S,2S)-2-(2′,6′-difluoro-5-methyl [1,1′-biphenyl]-2-yl)-2-fluorocyclopropane-1-carbonyl]-3-fluoroazetidin-2-yl}methyl)methanesulfonamide]	361.41 % of vehicle treatment	95%
CCS(=O)(=O)NC[C@@H]1[C@H](F)CN1C(=O)[C@@H]1C[C@@]1(F)c1ccc(F)cc1-c1c(F)cccc1F [Example 412, N-({(2R,3R)-3-fluoro-1-[(1S,2S)-2-fluoro-2-(2′,5,6′-trifluoro[1,1′-biphenyl]-2-yl)cyclopropane-1-carbonyl]azetidin-2-yl}methyl)ethanesulfonamide]	573.33 % of vehicle treatment	111%
CNS(=O)(=O)NC[C@@H]1[C@H](F)CN1C(=O)[C@@H]1C[C@@]1(F)c1ccc(F)cc1-c1c(F)cccc1F [Example 423, N-({(2R,3R)-3-fluoro-1-[(1S,2S)-2-fluoro-2-(2′,5,6′-trifluoro[1,1′-biphenyl]-2-yl)cyclopropane-1-carbonyl]azetidin-2-yl}methyl)-N′-methylsulfuric Diamide]	391.59 % of vehicle treatment	102%
O=C([C@@H]1C[C@@]1(F)c1ccc(F)cc1-c1c(F)cccc1F)N1C[C@@H](F)[C@H]1CNS(=O)(=O)N1CCC1 [Example 446, N-({(2R,3R)-3-fluoro-1-[(1S,2S)-2-fluoro-2-(2′,5,6′-trifluoro[1,1′-biphenyl]-2-yl)cyclopropane-1-carbonyl]azetidin-2-yl}methyl)azetidine-1-sulfonamide]		100%
O=C([C@@H]1C[C@@]1(F)c1ccc(F)cc1-c1c(F)cccc1F)N1C[C@@H](F)[C@H]1CNS(=O)(=O)NC1CC1 [Example 447, N-cyclopropyl-N′-({(2R,3R)-3-fluoro-1-[(1S,2S)-2-fluoro-2-(2′,5,6′-trifluoro[1,1′-biphenyl]-2-yl)cyclopropane-1-carbonyl]azetidin-2-yl}methyl)sulfuric diamide]		90%
O=C([C@@H]1C[C@@]1(F)c1ccc(F)cc1-c1c(F)cccc1F)N1C[C@@H](F)[C@H]1CNS(=O)(=O)C(F)F [Example 448, 1,1-difluoro-N-({(2R,3R)-3-fluoro-1-[(1S,2S)-2-fluoro-2-(2′,5,6′-trifluoro[1,1′-biphenyl]-2-yl)cyclopropane-1-carbonyl]azetidin-2-yl}methyl)methanesulfonamide]		98%
O=C([C@@H]1C[C@@]1(F)c1ccc(F)cc1-c1c(F)cccc1F)N1C[C@@H](F)[C@H]1CNS(=O)(=O)C(F)(F)F [Example 449, 1,1,1-trifluoro-N-({(2R,3R)-3-fluoro-1-[(1S,2S)-2-fluoro-2-(2′,5,6′-trifluoro[1,1′-biphenyl]-2-yl)cyclopropane-1-carbonyl]azetidin-2-yl}methyl)methanesulfonamide]		94%
CS(=O)(=O)NCC1CCN(C(=O)[C@@H]2C[C@@]2(F)c2ccccc2-c2c(F)cccc2F)C1 (stereo partly drawn) [Example 450, N-({(3R)-1-[(1S,2S)-2-(2′,6′-difluoro[1,1′-biphenyl]-2-yl)-2-fluorocyclopropane-1-carbonyl]pyrrolidin-3-yl}methyl)methanesulfonamide, or N-({(3S)-1-[(1S,2S)-2-(2′,6′-difluoro[1,1′-biphenyl]-2-yl)-2-fluorocyclopropane-1-carbonyl]pyrrolidin-3-yl}methyl)methanesulfonamide]		96%
N-({(2S,3R)-1-[(1R,2R)-2-fluoro-2-(2′- fluoro[1,1′-biphenyl]-2- yl)cyclopropane-1-carbonyl]-3- methylazetidin-2- yl}methyl)ethanesulfonamide, or N- ({(2S,3R)-1-[(1S,2S)-2-fluoro-2-(2′- fluoro[1,1′-biphenyl]-2- yl)cyclopropane-1-carbonyl]-3- methylazetidin-2- yl}methyl)ethanesulfonamide [Example 439]		107%
